Test results: patent US9572343B2, “Active compound combinations” (BAYER CROPSCIENCE AG, priority 2012, dated 2017)
Like-named read-outs stand apart in the source and are kept apart here.

How the values were obtained:
Assay type in all cases: in vivo
Uromyces appendiculatus = experiment: Uromyces test (beans)/preventive; conditions: for pest or weed control at 2 ppm: application rate 2 ppm a.i.; for pest or weed control at 0.5 ppm: application rate 0.5 ppm a.i.
Description: (§1) Solvent: 24.5 parts by weight of acetone • 24.5 parts by weight of dimethylacetamide
(§2) Emulsifier: 1 part by weight of alkylaryl polyglycol ether
(§3) To produce a suitable preparation of active compound, 1 part by weight of active compound is mixed with the stated amounts of solvent and emulsifier, and the concentrate is diluted with water to the desired concentration.
(§4) To test for preventive activity, young plants are sprayed with the preparation of active compound at the stated rate of application. After the spray coating has dried on, the plants are inoculated with an aqueous spore suspension of the causal agent of bean rust (Uromyces appendiculatus) and then remain for 1 day in an incubation cabinet at approximately 20° C. and a relative atmospheric humidity of 100%.
The plants are then placed in a greenhouse at approximately 21° C. and a relative atmospheric humidity of approximately 90%.
The test is evaluated 10 days after the inoculation. 0% means an efficacy which corresponds to that of the untreated control, while an efficacy of 100% means that no disease is observed.

Leptosphaeria nodorum = Leptosphaeria nodorum test (wheat)/preventive; conditions: Table C1
Description: (§5) Solvent: 49 parts by weight of N,N-dimethylacetamide Emulsifier: 1 part by weight of alkylaryl polyglycol ether To produce a suitable preparation of active compound, 1 part by weight of active compound or active compound combination is mixed with the stated amounts of solvent and emulsifier, and the concentrate is diluted with water to the desired concentration. To test for preventive activity, young plants are sprayed with the preparation of active compound or active compound combination at the stated rate of application. After the spray coating has been dried, the plants are sprayed with a spore suspension of Leptosphaeria nodorum.

Phakopsora pachyrhizi = experiment: Phakopsora test (soybeans)/preventive; conditions: for pest or weed control at 1 ppm: Table D2, application rate 1 ppm a.i.
Pyrenophora teres = experiment: Pyrenophora teres-test (barley)/preventive; conditions: Table E1
Description: Solvent: 49 parts by weight of N,N-dimethylacetamide
as §2
To produce a suitable preparation of active compound, 1 part by weight of active compound or active compound combination is mixed with the stated amounts of solvent and emulsifier, and the concentrate is diluted with water to the desired concentration.
To test for preventive activity, young plants are sprayed with the preparation of active compound or active compound combination at the stated rate of application.
After the spray coating has been dried, the plants are sprayed with a spore suspension of Pyrenophora teres. The plants remain for 48 hours in an incubation cabinet at approximately 20° C. and a relative atmospheric humidity of approximately 100%.
The plants are placed in the greenhouse at a temperature of approximately 20° C. and a relative atmospheric humidity of approximately 80%.
The test is evaluated 8 days after the inoculation. 0% means an efficacy which corresponds to that of the untreated control, while an efficacy of 100% means that no disease is observed.

[1] = tested on: Blumeria graminis f.sp. hordei; experiment: Blumeria test (barley)/preventive; conditions: Table B1
Description: Solvent: 49 parts by weight of N,N-dimethylacetamide Emulsifier: 1 part by weight of alkylaryl polyglycol ether To produce a suitable preparation of active compound, 1 part by weight of active compound or active compound combination is mixed with the stated amounts of solvent and emulsifier, and the concentrate is diluted with water to the desired concentration. To test for preventive activity, young plants are sprayed with the preparation of active compound or active compound combination at the stated rate of application. After the spray coating has been dried, the plants are dusted with spores of Blumeria graminis f.sp. hordei.

Septoria tritici = experiment: Septoria tritici-test (wheat)/preventive; conditions: Table F1
Description: as §5, with “Septoria tritici.” for “Leptosphaeria nodorum.”

Venturia inaequalis = experiment: Venturia test (apples)/preventive; conditions: Table I1
Description: (§6) Solvent: 24.5 parts by weight of acetone • 24.5 parts by weight of dimethylacetamide Emulsifier: 1 part by weight of alkylaryl polyglycol ether To produce a suitable preparation of active compound, 1 part by weight of active compound is mixed with the stated amounts of solvent and emulsifier, and the concentrate is diluted with water to the desired concentration. To test for preventive activity, young plants are sprayed with the preparation of active compound at the stated rate of application.

Alternaria solani = experiment: Alternaria test (tomatoes)/preventive
Description: as §1, §2, §3
as §4, with “Alternaria solani. The plants are” for “the causal agent of bean rust (Uromyces appendiculatus) and”, “placed” for “remain for 1 day”
The test is evaluated 3 days after the inoculation. 0% means an efficacy which corresponds to that of the untreated control while an efficacy of 100% means that no disease is observed.

Sphaerotheca fuliginea = experiment: Sphaerotheca test (cucumbers)/preventive; conditions: Table G1
Description: as §6, with “application. After the spray coating has dried on, the plants are inoculated with an aqueous spore suspension of Sphaerotheca fuliginea.” for “application.”

[2] = Uromyces appendiculatus, 240 h, Table H2, read-out: Efficacy in % found
[3] = Phakopsora pachyrhizi, 168 h, read-out: Efficacy in % found
[4] = Table A2, application rate 5 ppm a.i.
[5] = Phakopsora pachyrhizi, 168 h, Table D1, application rate 0.5 ppm a.i., read-out: Efficacy in % found
[6] = Table H3, application rate 20 ppm a.i.
[7] = Table A3, application rate 20 ppm a.i.
[8] = Table A1, application rate 0.5 ppm a.i.
[9] = Table H1, application rate 0.25 ppm a.i.
[10] = Table D1, application rate 0.5 ppm a.i.

## OC(Cc1ccccc1Cl)(Cn1nc[nH]c1=S)C1(Cl)CC1 (stereo not shown) [1.41, prothioconazole]
Uromyces appendiculatus; [2]
  pest or weed control at 2 ppm: 30%
Leptosphaeria nodorum; application rate 80 ppm a.i.
  Efficacy in % found: 30%
Phakopsora pachyrhizi; [3]
  pest or weed control at 1 ppm: 60%

## CC1(C)CCC(Cc2ccc(Cl)cc2)C1(O)Cn1cncn1 (stereo not shown) [1.30, metconazole]
Uromyces appendiculatus; [2]
  pest or weed control at 2 ppm: 30%
Leptosphaeria nodorum; application rate 40 ppm a.i.
  Efficacy in % found: 30%

## CO/C=C(/C(=O)OC)c1ccccc1COc1cccc(C(F)(F)F)n1 [3.16, picoxystrobin]
Pyrenophora teres; application rate 40 ppm a.i.
  Efficacy in % found: 71%
Uromyces appendiculatus; Table H2, application rate 2.5 ppm a.i.
  Efficacy in % found: 65%
Phakopsora pachyrhizi; Table D1, application rate 0.25 ppm a.i.
  Efficacy in % found: 8%
[1]; application rate 40 ppm a.i.
  Efficacy in % found: 50%

## CC(C)(C)C(O)(CCc1ccc(Cl)cc1)Cn1cncn1 (stereo not shown) [1.47, tebuconazole]
Septoria tritici; application rate 80 ppm a.i.
  Efficacy in % found: 14%
Phakopsora pachyrhizi; [3]
  pest or weed control at 1 ppm: 50%

## CO/N=C(/C1=NOCCO1)c1ccccc1Oc1ncnc(Oc2ccccc2Cl)c1F [3.12, fluoxastrobin]
Pyrenophora teres; application rate 20 ppm a.i.
  Efficacy in % found: 16%
Venturia inaequalis; application rate 0.5 ppm a.i.
  Efficacy in % found: 30%
Uromyces appendiculatus; [2]
  pest or weed control at 0.5 ppm: 65%

## CO/C=C(/C(=O)OC)c1ccccc1Oc1cc(Oc2ccccc2C#N)ncn1 [3.3, azoxystrobin]
Pyrenophora teres; application rate 20 ppm a.i.
  Efficacy in % found: 57%
Venturia inaequalis; application rate 0.5 ppm a.i.
  Efficacy in % found: 88%
Phakopsora pachyrhizi; Table D3, application rate 0.5 ppm a.i.
  Efficacy in % found: 68%
Alternaria solani; [4]
  Efficacy in % found: 35%

## Fc1ccc([C@]2(Cn3cncn3)O[C@H]2c2ccccc2Cl)cc1 (racemic) [1.12, epoxiconazole]
Uromyces appendiculatus; [2]
  pest or weed control at 0.5 ppm: 30%
Leptosphaeria nodorum; application rate 40 ppm a.i.
  Efficacy in % found: 60%
Septoria tritici; application rate 40 ppm a.i.
  Efficacy in % found: 14%
Phakopsora pachyrhizi; [5]
  pest or weed control at 0.5 ppm: 23%
Sphaerotheca fuliginea; application rate 1 ppm a.i.
  Efficacy in % found: 0%

## CC(C)c1ccc(Cl)cc1CN(C(=O)c1c(C(F)F)nn(C)c1F)C1CC1 [15.151, N-(5-chloro-2-isopropylbenzyl)-N-cyclopropyl-3-(difluoromethyl)-5-fluoro-1-methyl-1H-pyrazole-4-carboxamide]
Pyrenophora teres; application rate 20 ppm a.i.
  Efficacy in % found: 86%
Phakopsora pachyrhizi; [5]
  pest or weed control at 0.5 ppm: 0%
[1]; application rate 20 ppm a.i.
  Efficacy in % found: 20%

## CC(C1CC1)C(O)(Cn1cncn1)c1ccc(Cl)cc1 (stereo not shown) [1.5, cyproconazole]
Uromyces appendiculatus; [2]
  pest or weed control at 0.5 ppm: 50%
Septoria tritici; application rate 80 ppm a.i.
  Efficacy in % found: 0%
Sphaerotheca fuliginea; application rate 1.25 ppm a.i.
  Efficacy in % found: 52%
Alternaria solani; [4]
  Efficacy in % found: 23%

## chlorothalonil [5.4]
Venturia inaequalis; application rate 20 ppm a.i.
  Efficacy in % found: 68%
Uromyces appendiculatus; [6]
  Efficacy in % found: 0%
Septoria tritici; application rate 160 ppm a.i.
  Efficacy in % found: 0%
Sphaerotheca fuliginea; application rate 20 ppm a.i.
  Efficacy in % found: 29%
Alternaria solani; [7]
  Efficacy in % found: 8%

## CC(C)CC(C)c1sccc1NC(=O)c1cn(C)nc1C(F)(F)F (stereo not shown) [2.21, penthiopyrad]
Uromyces appendiculatus; Uromyces appendiculatus, 240 h, Table H1, application rate 0.25 ppm a.i., read-out: Efficacy in % found
  pest or weed control at 0.25 ppm: 30%
Phakopsora pachyrhizi; [5]
  pest or weed control at 0.5 ppm: 0%
Alternaria solani; [8]
  Efficacy in % found: 27%
[1]; application rate 80 ppm a.i.
  Efficacy in % found: 20%

## O=C(NCCc1ncc(C(F)(F)F)cc1Cl)c1ccccc1C(F)(F)F [2.6, fluopyram]
Pyrenophora teres; application rate 40 ppm a.i.
  Efficacy in % found: 57%
Uromyces appendiculatus; Uromyces appendiculatus, 240 h, Table H1, application rate 1 ppm a.i., read-out: Efficacy in % found
  pest or weed control at 1 ppm: 15%
Phakopsora pachyrhizi; Phakopsora pachyrhizi, 168 h, Table D1, application rate 2 ppm a.i., read-out: Efficacy in % found
  pest or weed control at 2 ppm: 0%
Alternaria solani; Table A1, application rate 2 ppm a.i.
  Efficacy in % found: 34%
[1]; application rate 40 ppm a.i.
  Efficacy in % found: 0%

## CC1CC(C)(C)c2cccc(NC(=O)c3cn(C)nc3C(F)F)c21 (stereo not shown) [2.32, 3-(difluoromethyl)-1-methyl-N-(1,1,3-trimethyl-2,3-dihydro-1H-inden-4-yl)-1H-pyrazole-4-carboxamide]
Pyrenophora teres; application rate 80 ppm a.i.
  Efficacy in % found: 0%
Venturia inaequalis; application rate 1 ppm a.i.
  Efficacy in % found: 39%
Uromyces appendiculatus; Uromyces appendiculatus, 240 h, read-out: Efficacy in % found
  pest or weed control at 0.25 ppm: 75%
Phakopsora pachyrhizi; [3]
  pest or weed control at 0.5 ppm: 15%
Alternaria solani; [8]
  Efficacy in % found: 18%
[1]; application rate 80 ppm a.i.
  Efficacy in % found: 20%

## Cn1cc(C(=O)Nc2ccccc2-c2cc(F)c(F)c(F)c2)c(C(F)F)n1 [2.8, fluxapyroxad]
Pyrenophora teres; application rate 80 ppm a.i.
  Efficacy in % found: 57%
Uromyces appendiculatus; [9]
  Efficacy in % found: 0%
Phakopsora pachyrhizi; [10]
  Efficacy in % found: 0%
Alternaria solani; [8]
  Efficacy in % found: 58%
[1]; application rate 40 ppm a.i.
  Efficacy in % found: 30%

## Cn1cc(C(=O)Nc2ccc(F)cc2-c2ccc(Cl)c(Cl)c2)c(C(F)F)n1 [2.1, bixafen]
Pyrenophora teres; application rate 80 ppm a.i.
  Efficacy in % found: 86%
Venturia inaequalis; application rate 1 ppm a.i.
  Efficacy in % found: 36%
Uromyces appendiculatus; [9]
  Efficacy in % found: 30%
Phakopsora pachyrhizi; [10]
  Efficacy in % found: 0%
Alternaria solani; [8]
  Efficacy in % found: 43%

## propineb [5.29]
Venturia inaequalis; application rate 5 ppm a.i.
  Efficacy in % found: 14%
Uromyces appendiculatus; [6]
  Efficacy in % found: 56%
Septoria tritici; application rate 400 ppm a.i.
  Efficacy in % found: 29%
Phakopsora pachyrhizi; Table D3, application rate 20 ppm a.i.
  Efficacy in % found: 0%
Sphaerotheca fuliginea; application rate 20 ppm a.i.
  Efficacy in % found: 71%
Alternaria solani; [7]
  Efficacy in % found: 12%

## COC(=O)N(OC)c1ccccc1COc1ccn(-c2ccc(Cl)cc2)n1 [3.17, pyraclostrobin]
Venturia inaequalis; application rate 1 ppm a.i.
  Efficacy in % found: 23%
Leptosphaeria nodorum; application rate 20 ppm a.i.
  Efficacy in % found: 50%
Septoria tritici; application rate 20 ppm a.i.
  Efficacy in % found: 0%
Phakopsora pachyrhizi; Phakopsora pachyrhizi, 168 h, Table D1, application rate 0.25 ppm a.i., read-out: Efficacy in % found
  pest or weed control at 0.25 ppm: 0%
Alternaria solani; Table A1, application rate 1 ppm a.i.
  Efficacy in % found: 28%

## CON=C(C(=O)OC)c1ccccc1CON=C(C)c1cccc(C(F)(F)F)c1 [3.22, trifloxystrobin]
Venturia inaequalis; application rate 0.25 ppm a.i.
  Efficacy in % found: 66%
Leptosphaeria nodorum; application rate 20 ppm a.i.
  Efficacy in % found: 40%
Septoria tritici; application rate 20 ppm a.i.
  Efficacy in % found: 71%
Alternaria solani; [4]
  Efficacy in % found: 45%

## Cn1cc(C(=O)Nc2cccc3c2[C@@H]2CC[C@H]3C2=C(Cl)Cl)c(C(F)F)n1 (racemic) [2.29, benzovindiflupyr]
Pyrenophora teres; application rate 40 ppm a.i.
  Efficacy in % found: 0%
Phakopsora pachyrhizi; [10]
  Efficacy in % found: 8%
Alternaria solani; [8]
  Efficacy in % found: 40%
[1]; application rate 40 ppm a.i.
  Efficacy in % found: 0%
